{
  "source": "BindingDB's records for doi:10.1021/jm900078f",
  "about": "(Metabasis Therapeutics, 2009)",
  "target": "T1, Fructose-1,6-bisphosphatase 1 (Homo sapiens, UniProt P09467)",
  "T1 sequence (P09467 whole entry)": "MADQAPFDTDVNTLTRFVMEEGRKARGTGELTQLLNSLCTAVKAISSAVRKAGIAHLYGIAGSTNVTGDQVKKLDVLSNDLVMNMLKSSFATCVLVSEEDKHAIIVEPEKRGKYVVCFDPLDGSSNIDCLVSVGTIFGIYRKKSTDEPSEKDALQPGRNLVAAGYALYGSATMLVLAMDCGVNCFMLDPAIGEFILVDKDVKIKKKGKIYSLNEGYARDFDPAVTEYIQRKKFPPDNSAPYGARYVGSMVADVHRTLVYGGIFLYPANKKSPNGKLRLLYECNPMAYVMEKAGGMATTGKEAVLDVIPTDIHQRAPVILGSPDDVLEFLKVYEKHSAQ",
  "experiment": "Inhibition of human liver FBPase expressed in Escherichia coli by spectrophotometry",
  "data": [
    {"smiles": "Nc1ncnc2c1nc(-c1ccc(P(=O)(O)O)o1)n2CCC1CCCCC1", "note": "[5-(6-amino-9-(2-cyclohexylethyl)-9H-purin-8-yl)furan-2-ylphosphonic acid]", "values": [
      {"measurement": "IC50", "result": 1400, "unit": "nM"}
    ]}
  ]
}
